“Also recorded” adds a separate entry of the source. Ends that are not written are not given here. Me2 = dimethylated (lysine)
Key:
G9A methyltransferase = experiment: In vitro methylation of K180me2 H1.0 peptide with G9A, products by LC-MS; type: biochemical
Procedure: In order to identify the precise sites of methylation by G9A and GLP methyltransferases on histone H1.0, in vitro methylation assays were performed and subsequently analyzed by Liquid Chromatography and High-resolution Mass Spectrometry (LC-MS) analysis. Methylation reactions were set up using either G9A methyltransferase (NEB, M0235S, Lot #0031201) or GLP methyltransferase (Cayman Chemical, 10755). The methyl donor in each reaction was unlabeled S-Adenosyl-L-Methionine (NEB, B9003S). The H1.0 substrate in each reaction was either unmodified H1.0 peptide labeled with biotin (ThermoFisher Scientific, Biotin-[…] (SEQ ID NO:69)), di-methylated H1.0 peptide (ThermoFisher Scientific, Biotin-[…]^(me2)PK (SEQ ID NO:70)), or full-length recombinant human H1.0 (NEB, M2501S). Methylation reactions were set up in triplicate for each condition as follows: 1×HMT reaction buffer (50 mM Tris-HCl, 5 mM MgCl2, 4 mM dithiothreitol, pH 9.0); 10U G9A or GLP Methyltransferase; 3.2 mM S-Adenosyl-L-Methionine; 500 ng unmodified or modified H1.0 peptide, or 1 μg full-length protein; final volume 10 μl. As controls, reactions were set up as above but without any methyltransferase present. All reactions were incubated in a thermocycler at 37° C. for 1 hour, and subsequently stopped by incubating on ice for 5 minutes. Samples were frozen at −80° C. prior to LC-MS analysis.
For the Liquid Chromatography and High-resolution Mass Spectrometry (LC-MS) analysis, samples were prepared as described above and about 1 μg o the product was injected onto a Thermo Scientific Easy nLC system configured with a 10 cm×100 um trap column and a 25 cm×100 um ID resolving column. Buffer A was 98% water, 2% methanol, and 0.2% formic acid. […] This ensured optimal full-scan data for quantification. […]
Protein identification was performed using Thermo Scientific Proteome Discoverer version 1.4 (including Sequest and Percolator algorithms) using RefSeqHuman sequence database. […] Protein quantification was performed using Pinpoint version 1.4 software. The Pinpoint quantification workflow included importing the Proteome Discoverer .msf files as spectral libraries. Identified peptides were subsequently quantified in MS .raw files using the Pinpoint peak finding, chromatographic alignment and area calculation algorithms.
To further address the sensitivity and specificity of G9A methylation to lysine 180 of H1.0 peptide, the K180me2 peptide (H1.0 AA 165-182) was used as a substrate in similar in vitro methylation experiments. Only minor quantitates of further methylated peptide were detected: H1.0K166me1K180me2 (1.27% of the total peptide in the reaction), H1.0K174me1K180me3 (1.06% of the total peptide in the reaction) and H1.0K174me3K175me3K177me1K180me2 (0.35% of the total peptide in the reaction) as shown in FIG. 9B FIG. 10.

GLP methyltransferase = target: T1, GLP methyltransferase (Homo sapiens, UniProt Q9H9B1); experiment: In vitro methylation of K180 dimethylated H1.0 peptide with GLP, products by LC-MS; type: biochemical; conditions: K180 dimethylated H1.0 peptide as substrate, only H1.0K180 and H1.0K174 further methylated
T1 construct: purchased Cayman Chemical 10755
T1 sequence (Q9H9B1 1-1298): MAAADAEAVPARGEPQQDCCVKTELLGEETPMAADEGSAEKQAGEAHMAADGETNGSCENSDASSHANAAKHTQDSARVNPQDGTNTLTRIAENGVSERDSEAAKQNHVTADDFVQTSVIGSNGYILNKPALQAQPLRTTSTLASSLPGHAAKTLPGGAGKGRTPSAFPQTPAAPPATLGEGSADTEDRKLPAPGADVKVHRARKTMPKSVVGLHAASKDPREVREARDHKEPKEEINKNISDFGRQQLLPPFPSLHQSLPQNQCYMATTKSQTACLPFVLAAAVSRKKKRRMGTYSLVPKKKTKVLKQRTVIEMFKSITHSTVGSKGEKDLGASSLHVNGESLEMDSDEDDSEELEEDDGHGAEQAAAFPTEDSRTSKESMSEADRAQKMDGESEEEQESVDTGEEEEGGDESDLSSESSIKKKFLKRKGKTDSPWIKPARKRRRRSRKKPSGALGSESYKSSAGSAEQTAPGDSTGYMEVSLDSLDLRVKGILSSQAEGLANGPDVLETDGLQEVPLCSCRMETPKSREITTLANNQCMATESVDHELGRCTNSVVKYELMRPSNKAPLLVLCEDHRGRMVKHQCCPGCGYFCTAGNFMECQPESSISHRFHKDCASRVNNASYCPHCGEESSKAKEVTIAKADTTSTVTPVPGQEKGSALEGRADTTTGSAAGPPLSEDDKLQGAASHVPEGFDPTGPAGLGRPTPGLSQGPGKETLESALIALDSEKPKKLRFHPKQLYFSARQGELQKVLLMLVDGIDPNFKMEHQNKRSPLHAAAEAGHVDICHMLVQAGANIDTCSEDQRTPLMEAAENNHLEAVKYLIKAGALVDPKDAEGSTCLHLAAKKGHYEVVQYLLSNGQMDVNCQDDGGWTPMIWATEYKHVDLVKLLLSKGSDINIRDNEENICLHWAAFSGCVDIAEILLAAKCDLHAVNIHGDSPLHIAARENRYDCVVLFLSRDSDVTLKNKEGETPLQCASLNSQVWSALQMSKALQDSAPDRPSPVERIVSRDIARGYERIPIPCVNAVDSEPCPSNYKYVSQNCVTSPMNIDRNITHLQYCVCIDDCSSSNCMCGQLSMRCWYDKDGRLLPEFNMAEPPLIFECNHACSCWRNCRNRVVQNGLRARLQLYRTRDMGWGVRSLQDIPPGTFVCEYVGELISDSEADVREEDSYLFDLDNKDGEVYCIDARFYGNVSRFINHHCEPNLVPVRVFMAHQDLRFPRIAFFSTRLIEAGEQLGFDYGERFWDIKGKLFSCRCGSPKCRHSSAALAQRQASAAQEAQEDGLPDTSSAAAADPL
Procedure: In order to identify the precise sites of methylation by G9A and GLP methyltransferases on histone H1.0, in vitro methylation assays were performed and subsequently analyzed by Liquid Chromatography and High-resolution Mass Spectrometry (LC-MS) analysis. Methylation reactions were set up using either G9A methyltransferase (NEB, M0235S, Lot #0031201) or GLP methyltransferase (Cayman Chemical, 10755). The methyl donor in each reaction was unlabeled S-Adenosyl-L-Methionine (NEB, B9003S). […]
For the Liquid Chromatography and High-resolution Mass Spectrometry (LC-MS) analysis, samples were prepared as described above and about 1 μg o the product was injected onto a Thermo Scientific Easy nLC system configured with a 10 cm×100 um trap column and a 25 cm×100 um ID resolving column. […] This ensured optimal full-scan data for quantification. […]
Protein identification was performed using Thermo Scientific Proteome Discoverer version 1.4 (including Sequest and Percolator algorithms) using RefSeqHuman sequence database. […] Protein quantification was performed using Pinpoint version 1.4 software. The Pinpoint quantification workflow included importing the Proteome Discoverer .msf files as spectral libraries. Identified peptides were subsequently quantified in MS .raw files using the Pinpoint peak finding, chromatographic alignment and area calculation algorithms. […]

[1] = system: secretion of H1.0K180me2 from hADSCs; experiment: Slot blot of culture media of hADSCs treated with bleomycin; type: cell-based, human
Procedure: 0.5 μl of serum sample or known amounts of synthesized peptide were diluted in 200 μl TBS. Samples were then heat denatured at 70° C. for 10 minutes before being transferred to nitrocellulose membrane using a vacuum manifold slot blot apparatus (BioRad, 1706542). The membrane was blocked with 5% non-fat milk in PBS-T for 30 minutes at RT then immunoblotted with the above primary antibodies at 4° C. over night. Proteins were detected with HRP secondary antibodies listed above for 1 hour at RT followed by ECL Western Blotting Substrate (ThermoFisher, 32106) using manufacturers instructions. All washes between steps were with PBS-T. Membranes were imaged with Omega LUM-C imaging system (Gel Company). Slot blot bands for each sample were then quantified using ImageJ.
SR hADSCs, hADSCs treated with bleomycin for 2 hours (acute DNA damage) and hADSCs treated with bleomycin and allowed to senesce for 3 days (genotoxic stress induced senescence) were lysed and fractionated into soluble and chromatin bound fractions. These fractions were then subjected to LC-MS/MS analysis. Peptide expression levels were taken as the total area under the LC-MS/MS relative intensity curve, and individual peptides were unambiguously assigned to proteins using Pinpoint software, version 1.4 (Thermo Scientific). The areas of all peptides assigned to an individual protein were summed to yield protein expression levels, which were normalized against the total protein library size for each sample. For each cellular fraction, H1.0 peptide abundance is represented as a percentage of total H1.0 peptides observed in each condition. Normalized absolute values of H1.0 peptide levels in each fraction were also shown. […] Culture media from SR hADSCs treated with bleomycin was collected for slot blot analysis with α-H1.0 and α-H1.0K180me2 antibodies to assess secretion of H1.0 to the extracellular matrix (ECM). The experiment was carried out according to methods described in Example 1. […] This signifies secretion out of the cells.

[2] = system: chromatin bound H1.0 in hADSCs; experiment: LC-MS/MS of soluble and chromatin bound fractions of hADSCs after bleomycin; type: cell-based, human
Procedure: (§1) For replicative senescence, hADSCs were grown in culture until reaching replicative exhaustion (PD 41-46). For acute DNA damage conditions, SR hADSCs (PD 4-10) were treated with 50μg/ml bloemycin sulfate (Cayman Chemical, 13877) in growth media for 2 hours. For genotoxic stress induced senescence, SR hADSCs (PD 4-10) were treated with 50 μg/ml bloemycin sulfate (Cayman Chemical, 13877) in growth media for 2 hours then washed with PBS and given fresh growth media without bleomycin. Cells were then grown for 3 days before collection.
SR hADSCs, hADSCs treated with bleomycin for 2 hours (acute DNA damage) and hADSCs treated with bleomycin and allowed to senesce for 3 days (genotoxic stress induced senescence) were lysed and fractionated into soluble and chromatin bound fractions. These fractions were then subjected to LC-MS/MS analysis. Peptide expression levels were taken as the total area under the LC-MS/MS relative intensity curve, and individual peptides were unambiguously assigned to proteins using Pinpoint software, version 1.4 (Thermo Scientific). The areas of all peptides assigned to an individual protein were summed to yield protein expression levels, which were normalized against the total protein library size for each sample. For each cellular fraction, H1.0 peptide abundance is represented as a percentage of total H1.0 peptides observed in each condition. […]

H1.0K180me2 in hADSCs = experiment: Western blot / localization of H1.0K180me2 in hADSCs after bleomycin (acute DNA damage); type: cell-based, human
Procedure: as §1
Material for western blot analysis (cultured cells or tissue) was lysed in ice-cold RIPA lysis buffer (Thermo Scientific 89900) and sonicated using a Covaris S2 sonicator (10% duty cycle, Intensity 5, Bursts per minute 100, 120 seconds). Total protein concentration in each sample was quantified using Quick Start Bradford 1× Dye Reagent (BioRad, 5000205) following manufacturer's protocol. Samples were then mixed with NuPAGE LDS sample loading buffer (ThermoFisher, NP0007) and NuPAGE sample reducing buffer (ThermoFisher, NP0004), and heat denatured at 70° C. for 10 minutes. […] Proteins were detected with HRP secondary antibodies listed above for 1 hour at RT followed by ECL Western Blotting Substrate (ThermoFisher, 32106) using manufacturer's instructions. […]

[3] = K180me2 peptide (H1.0 AA 165-182) as substrate

Sequence of G9A methyltransferase (Q9Z148 969-1263 limits assumed): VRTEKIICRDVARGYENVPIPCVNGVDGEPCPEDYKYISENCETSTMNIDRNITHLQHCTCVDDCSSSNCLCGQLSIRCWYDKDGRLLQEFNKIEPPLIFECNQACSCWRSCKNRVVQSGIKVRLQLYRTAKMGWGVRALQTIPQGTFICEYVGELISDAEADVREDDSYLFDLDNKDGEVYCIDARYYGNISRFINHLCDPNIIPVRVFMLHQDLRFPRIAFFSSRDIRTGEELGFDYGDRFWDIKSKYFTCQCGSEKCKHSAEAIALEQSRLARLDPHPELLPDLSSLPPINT

Row | Substance | H1.0K166me1K180me2, % of the total peptide in the reaction (G9A methyltransferase; [3]) [%] | H1.0K174me1K180me3, % of the total peptide in the reaction (G9A methyltransferase; [3]) [%] | H1.0K174me3K175me3K177me1K180me2, % of the total peptide in the reaction (G9A methyltransferase; [3]) [%] | peptides further methylated (G9A methyltransferase; dimethylated H1.0 peptide as substrate) [%] | peptides further methylated (GLP methyltransferase) [%] | secreted H1.0K180me2 in cell culture media ([1]; after 24 hours of bleomycin treatment) | time of maximal H1.0K180me2 secretion ([1]; conditioned medium, time course after bleomycin) [h] | DFFB secretion ([1]; upon GSI-SEN, starting 48 hours after treatment) | chromatin bound H1.0, % of total ([2]; acute DNA damage (bleomycin 2 hours)) [%] | chromatin bound H1.0, % of total ([2]; genotoxic stress induced senescence (bleomycin 2 hours, then 3 days)) [%] | localization of H1.0K180me2 (H1.0K180me2 in hADSCs; SR hADSCs treated with bleomycin) | H1.0K180me2 on chromatin (H1.0K180me2 in hADSCs; bleomycin 50 μg/ml 2 hours, chromatin bound fraction, western blot)
1 | AKPVKASKPKKAKPVK(me2)PK (chain 1 AKPVKASKPKKAKPVK(Me2)PK; chain 2 AKPVKASKPKKAKPVK(Me2)PK; not fully specified (N-terminus)) [K180 dimethylated H1.0 peptide, H1.0 AA 165-182 peptide dimethylated at K180] | 1.27 | 1.06 | 0.35 | 2.64 | 1.02 |  |  |  |  |  |  | 
2 | bleomycin |  |  |  |  |  | secreted H1.0K180me2 was also readily detected | ≤ 48 | increase in DFFB secretion | ~60 | ~30 | H1.0K180me2 localized to the cytoplasm | methylation of H1.0K180 on the chromatin upon DNA damage; also recorded: H1.0K180me2 is found on chromatin

Reference: patent US10921324B2, “Compositions and methods related to the methylation of histone H1.0 protein” (Aelan Cell Technologies, Inc., priority 2016, dated 2021)
